The results in this text go back to patent US9296734B2 (AMGEN INC., priority 2013, dated 2016).

Read-outs that look alike come from different tables or passages of the source.

In experiment [1] the target is Beta Secretase enzyme (BACE) (Homo sapiens (Human), UniProt P56817). As to the kind of experiment: In vitro enzymatic BACE FRET assay. The class given is biochemical. The conditions noted are these: read-out: BACE 1 FRET assay IC50. The method, boiled down: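 Reactions ran in 0.05 M acetate pH 4.2 with 10% DMSO final and 100 uM genapol. They were started with 50 nM peptide FRET substrate (fluorophore and quencher flanking the BACE cleavage site) and incubated one hour. Tris addition raised the pH to neutral to stop the reaction before fluorescence reading.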
Sequence of Beta Secretase enzyme (BACE) (P56817 46-501): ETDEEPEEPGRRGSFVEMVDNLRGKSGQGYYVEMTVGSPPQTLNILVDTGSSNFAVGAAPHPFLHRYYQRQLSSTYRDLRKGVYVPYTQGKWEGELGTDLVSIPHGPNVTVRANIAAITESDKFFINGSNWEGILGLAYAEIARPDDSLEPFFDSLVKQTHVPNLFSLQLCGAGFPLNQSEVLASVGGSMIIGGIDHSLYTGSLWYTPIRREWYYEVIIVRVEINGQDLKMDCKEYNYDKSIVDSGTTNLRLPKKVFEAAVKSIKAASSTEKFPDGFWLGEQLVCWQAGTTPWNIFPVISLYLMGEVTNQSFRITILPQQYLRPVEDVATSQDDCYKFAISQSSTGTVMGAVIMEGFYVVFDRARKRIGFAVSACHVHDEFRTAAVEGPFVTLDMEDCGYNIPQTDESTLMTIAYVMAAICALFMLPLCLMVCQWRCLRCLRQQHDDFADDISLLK

In experiment [2] the test system is Aβ40 in conditioned medium of cells stably expressing Amyloid Precursor Protein (APP). Put plainly: In vitro BACE cell-based assay (Aβ40 sandwich ELISA). As to conditions: Homo sapiens. The method, boiled down: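 Secreted Aβ40 was quantified by sandwich ELISA (pAb40 capture, biotinylated 6E10 detection, Europium time-resolved fluorescence). IC50 derived from percent inhibition versus concentration.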
A general note: In an ELISA, binding on a coated surface is turned into a signal by an enzyme label.

The next experiment deals with Cathepsin D (Cat D) (Homo sapiens (Human), UniProt P07339). Put plainly: In vitro enzymatic Cathepsin D (Cat D) FRET assay. Type of experiment: biochemical. As to conditions: read-out: CatD IC50. In a few lines:
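CHO-expressed recombinant Cat D cleaves a fluorophore/quencher FRET peptide (20 nM) in 0.05 M citrate pH 3.5, 5 mM CHAPS, 10% DMSO final, over 1 h. Tris addition neutralizes pH to stop the reaction; fluorescence read at excitation 500 nm, emission 580 nm.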

Setting [3] is: average IC50, BACE enzyme assay.
The mark [4] stands for this setting: HEK293, average IC50, HEK cell assay, read-out: HEK cell assay IC50.
Setting [5] is: average IC50, cathepsin D enzyme assay.
The mark [6] stands for this setting: HEK293, average IC50, HEK cells, read-out: HEK cell assay IC50.
The mark [7] stands for this setting: HEK293, read-out: HEK cell assay IC50.

Sequence of Cathepsin D (Cat D) (P07339 65-412, species assumed): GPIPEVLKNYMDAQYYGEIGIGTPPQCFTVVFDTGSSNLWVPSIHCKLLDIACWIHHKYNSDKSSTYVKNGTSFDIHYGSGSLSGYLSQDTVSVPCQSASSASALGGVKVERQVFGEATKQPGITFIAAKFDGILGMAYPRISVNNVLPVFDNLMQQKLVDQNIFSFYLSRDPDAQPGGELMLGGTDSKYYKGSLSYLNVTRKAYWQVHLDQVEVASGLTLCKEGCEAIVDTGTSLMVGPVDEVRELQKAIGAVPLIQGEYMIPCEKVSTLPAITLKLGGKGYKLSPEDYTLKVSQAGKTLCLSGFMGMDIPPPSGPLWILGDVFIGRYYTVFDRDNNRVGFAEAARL

One may read the IC50 as the concentration that gives 50% inhibition. As for `N#Cc1ccc(C(=O)Nc2ccc(F)c([C@]3(CF)C[C@@H](C(F)(F)F)OC(N)=N3)n2)nc1` [Example 134, N-(6-((4S,6S)-2-amino-4-(fluoromethyl)-6-(trifluoromethyl)-5,6-dihydro-4H-1,3-oxazin-4-yl)-5-fluoropyridin-2-yl)-5-cyanopicolinamide], the IC50 in experiment [1] (setting [3]) was 0.079 µM; in experiment [2] (setting [4]), 0.055 µM; on Cathepsin D (Cat D) (setting [5]), over 400 µM.
With `NC1=N[C@](CF)(c2nc(NC(=O)c3ccc(Cl)cn3)ccc2F)C[C@@H](C(F)(F)F)O1` [Example 136, N-(6-((4S,6S)-2-amino-4-(fluoromethyl)-6-(trifluoromethyl)-5,6-dihydro-4H-1,3-oxazin-4-yl)-5-fluoropyridin-2-yl)-5-chloropicolinamide], the IC50 was 0.169 µM in experiment [1] (setting [3]); 32 µM in experiment [1] (average IC50); 0.132 µM in experiment [2] (setting [4]); over 15.6 µM in experiment [2] (setting [6]); 717 µM on Cathepsin D (Cat D) (setting [5]); over 400 µM at Cathepsin D (Cat D) (average IC50).
As to `NC1=N[C@](CF)(c2cc(N)cnc2F)C[C@@H](C(F)(F)F)O1` [Example 138, (4S,6S)-4-(5-amino-2-fluoropyridin-3-yl)-4-(fluoromethyl)-6-(trifluoromethyl)-5,6-dihydro-4H-1,3-oxazin-2-amine], the concentration for half-maximal inhibition (IC50) in experiment [1] (average IC50) was over 40 µM; in experiment [2] (setting [6]), over 15.6 µM; at Cathepsin D (Cat D) (average IC50) it was over 400 µM.
For the compound `NC1=N[C@](CF)(c2cc(NC(=O)c3ccc(Cl)cn3)cnc2F)C[C@@H](C(F)(F)F)O1` [Example 139, N-(5-((4S,6S)-2-amino-4-(fluoromethyl)-6-(trifluoromethyl)-5,6-dihydro-4H-1,3-oxazin-4-yl)-6-fluoropyridin-3-yl)-5-chloropicolinamide], the values for the IC50 (in experiment [1] (average IC50); in experiment [2] (setting [7]); at Cathepsin D (Cat D) (average IC50)) were 0.0965 µM, 0.418 µM and over 400 µM, respectively.
Take `Cc1cc(C#N)cnc1C(=O)Nc1cnc(F)c([C@]2(CF)C[C@@H](C(F)(F)F)OC(N)=N2)c1` [Example 140, N-(5-((4S,6S)-2-amino-4-(fluoromethyl)-6-(trifluoromethyl)-5,6-dihydro-4H-1,3-oxazin-4-yl)-6-fluoropyridin-3-yl)-5-cyano-3-methylpicolinamide]: the figures for the 50% inhibitory concentration (IC50) (in experiment [1] (average IC50); in experiment [2] (setting [6]); on Cathepsin D (Cat D) (average IC50)) were 0.113 µM, 0.338 µM and over 400 µM, respectively.
`N#Cc1ccc(C(=O)Nc2cnc(F)c([C@]3(CF)C[C@@H](C(F)(F)F)OC(N)=N3)c2)nc1` [Example 141, N-(5-((4S,6S)-2-amino-4-(fluoromethyl)-6-(trifluoromethyl)-5,6-dihydro-4H-1,3-oxazin-4-yl)-6-fluoropyridin-3-yl)-5-cyanopicolinamide]: the IC50 in experiment [1] (average IC50) amounted to 0.171 µM; in experiment [2] (setting [6]) it was 0.639 µM; on Cathepsin D (Cat D) (average IC50) it was 1790 µM.
Regarding `COc1ccc(C(=O)Nc2cnc(F)c([C@]3(CF)C[C@@H](C(F)(F)F)OC(N)=N3)c2)nc1` [Example 142, N-(5-((4S,6S)-2-amino-4-(fluoromethyl)-6-(trifluoromethyl)-5,6-dihydro-4H-1,3-oxazin-4-yl)-6-fluoropyridin-3-yl)-5-methoxypicolinamide], the half-maximal inhibitory concentration (IC50) in experiment [1] (average IC50) came to 0.114 µM; in experiment [2] (setting [6]) it was 0.587 µM; on Cathepsin D (Cat D) (average IC50), 5520 µM.
As to `NC1=N[C@](CF)(c2cccc(NC(=O)c3ccc(Cl)cn3)c2)C[C@@H](C(F)(F)F)O1` [Example 143, N-(3-((4S,6S)-2-amino-4-(fluoromethyl)-6-(trifluoromethyl)-5,6-dihydro-4H-1,3-oxazin-4-yl)phenyl)-5-chloropicolinamide], the half-maximal inhibitory concentration (IC50) was 0.117 µM in experiment [1] (average IC50), 0.154 µM in experiment [2] (setting [6]) and 2370 µM on Cathepsin D (Cat D) (average IC50).
For `N#Cc1ccc(C(=O)Nc2cccc([C@]3(CF)C[C@@H](C(F)(F)F)OC(N)=N3)c2)nc1` [Example 144, N-(3-((4S,6S)-2-amino-4-(fluoromethyl)-6-(trifluoromethyl)-5,6-dihydro-4H-1,3-oxazin-4-yl)phenyl)-5-cyanopicolinamide], the IC50 is 0.0892 µM in experiment [1] (average IC50), 0.067 µM in experiment [2] (setting [6]) and 665 µM on Cathepsin D (Cat D) (average IC50).
As for `NC1=N[C@](CF)(c2cccc(Nc3nccc4cc(Cl)cnc34)c2)C[C@@H](C(F)(F)F)O1` [Example 146, (4S,6S)-4-(3-((3-chloro-1,7-naphthyridin-8-yl)amino)phenyl)-4-(fluoromethyl)-6-(trifluoromethyl)-5,6-dihydro-4H-1,3-oxazin-2-amine], the results for the IC50 (in experiment [1] (average IC50); in experiment [2] (setting [6]); at Cathepsin D (Cat D) (average IC50)) were 0.067 µM, 0.119 µM and 733 µM, respectively.
With `COc1ncc(NC(=O)c2ccc(Cl)cn2)cc1[C@]1(C)C[C@@H](C(F)(F)F)OC(N)=N1` [Example 147, N-(5-((4S,6S)-2-amino-4-methyl-6-(trifluoromethyl)-5,6-dihydro-4H-1,3-oxazin-4-yl)-6-methoxypyridin-3-yl)-5-chloropicolinamide], the IC50 worked out at 0.249 µM in experiment [1] (average IC50), 0.119 µM in experiment [2] (setting [6]) and 1420 µM at Cathepsin D (Cat D) (average IC50).
For the compound `Cn1cc(NC(=O)c2ccc(Cl)cn2)cc([C@]2(C)C[C@@H](C(F)(F)F)OC(N)=N2)c1=O` [Example 148, N-(5-((4S,6S)-2-amino-4-methyl-6-(trifluoromethyl)-5,6-dihydro-4H-1,3-oxazin-4-yl)-1-methyl-6-oxo-1,6-dihydropyridin-3-yl)-5-chloropicolinamide], the half-maximal inhibitory concentration (IC50) was 0.366 µM in experiment [1] (average IC50), 0.0127 µM in experiment [2] (setting [7]) and over 400 µM at Cathepsin D (Cat D) (average IC50).
Consider `Cn1cc(NC(=O)c2ccc(C#N)cn2)cc([C@]2(C)C[C@@H](C(F)(F)F)OC(N)=N2)c1=O` [Example 149, N-(5-((4S,6S)-2-amino-4-methyl-6-(trifluoromethyl)-5,6-dihydro-4H-1,3-oxazin-4-yl)-1-methyl-6-oxo-1,6-dihydropyridin-3-yl)-5-cyanopicolinamide], for which the half-inhibitory concentration (IC50) in experiment [1] (average IC50) was 0.239 µM; in experiment [2] (setting [6]), 0.021 µM; on Cathepsin D (Cat D) (average IC50), over 400 µM.
With `Cc1cc(C#N)cnc1C(=O)Nc1cc([C@]2(C)C[C@@H](C(F)(F)F)OC(N)=N2)c(=O)n(C)c1` [Example 150, N-(5-((4S,6S)-2-amino-4-methyl-6-(trifluoromethyl)-5,6-dihydro-4H-1,3-oxazin-4-yl)-1-methyl-6-oxo-1,6-dihydropyridin-3-yl)-5-cyano-3-methylpicolinamide], the IC50 was 0.121 µM in experiment [1] (average IC50), 0.0101 µM in experiment [2] (setting [6]) and over 400 µM at Cathepsin D (Cat D) (average IC50).
With `NC1=N[C@](CF)(c2cc(NC(=O)c3ccc(Cl)cn3)cc(F)c2F)C[C@@H](C(F)(F)F)O1` [Example 152, N-(3-((4S,6S)-2-amino-4-(fluoromethyl)-6-(trifluoromethyl)-5,6-dihydro-4H-1,3-oxazin-4-yl)-4,5-difluorophenyl)-5-chloropicolinamide], the half-maximal inhibitory concentration (IC50) in experiment [1] (setting [3]) amounted to 0.026 µM; in experiment [2] (setting [4]), 0.087 µM; on Cathepsin D (Cat D) (setting [5]), 2750 µM.
The corresponding values for `COc1cnc(C(=O)Nc2cc(F)c(F)c([C@]3(CF)C[C@@H](C(F)(F)F)OC(N)=N3)c2)cn1` [Example 153, N-(3-((4S,6S)-2-amino-4-(fluoromethyl)-6-(trifluoromethyl)-5,6-dihydro-4H-1,3-oxazin-4-yl)-4,5-difluorophenyl)-5-methoxypyrazine-2-carboxamide] are 0.05 µM, 0.126 µM and 3360 µM.
